In the NIST ThermoML archive (doi:10.1021/je200963q):
± gives the expanded uncertainty stated by the source.

Experiment: wn = mass fraction of the nth substance listed
Conditions: 303.15 K, 101.3 kPa, Liquid, w1 = 0.08

viscosity (Capillary tube (Ostwald / Ubbelohde) method): 1.069 ± 0.009 mPa·s
mass density: 996.7 ± 0.4 kg/m3
Compound: CCCCOCCOCCO [3,6-dioxa-1-decanol] + O
